# According to ChEMBL document CHEMBL5653631, “A Potent and Selective ULK1 Inhibitor Suppresses Autophagy and Sensitizes Cancer Cells to Nutrient Stress” (iScience, 2018):
# Experiments:
# [1] = biological target: Tau-tubulin kinase 2 (Homo sapiens) (UniProt Q6IQ55); assay: Inhibition of human recombinant TTBK2 at 500 nM related to control ULK1
# [2] = biological target: T1, Rhodopsin kinase GRK1 (Homo sapiens) (UniProt Q15835); assay: Inhibition of human recombinant RHOK at 500 nM in presence of ATP by radiometric assay relative to control
# T1 sequence (whole entry): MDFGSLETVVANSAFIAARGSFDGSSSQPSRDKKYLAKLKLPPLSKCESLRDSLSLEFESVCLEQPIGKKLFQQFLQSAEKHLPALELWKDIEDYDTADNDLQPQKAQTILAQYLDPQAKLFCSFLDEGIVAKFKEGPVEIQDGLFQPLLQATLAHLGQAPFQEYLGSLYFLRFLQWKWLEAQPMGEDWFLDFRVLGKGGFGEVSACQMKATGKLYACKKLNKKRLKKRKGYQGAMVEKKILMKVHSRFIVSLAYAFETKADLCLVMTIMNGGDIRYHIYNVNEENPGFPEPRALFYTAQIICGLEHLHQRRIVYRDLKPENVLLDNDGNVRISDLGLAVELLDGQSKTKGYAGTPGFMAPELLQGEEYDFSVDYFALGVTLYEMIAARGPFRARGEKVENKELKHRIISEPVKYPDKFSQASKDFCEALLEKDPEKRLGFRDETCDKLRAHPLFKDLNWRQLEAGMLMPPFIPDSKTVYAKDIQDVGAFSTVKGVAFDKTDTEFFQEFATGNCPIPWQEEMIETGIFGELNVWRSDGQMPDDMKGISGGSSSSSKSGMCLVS
# [3] = biological target: T2, Tyrosine-protein kinase ZAP-70 (Homo sapiens) (UniProt P43403); assay: Inhibition of human recombinant ZAP70 at 15 nM in presence of ATP by radiometric assay relative to control
# T2 sequence (whole entry): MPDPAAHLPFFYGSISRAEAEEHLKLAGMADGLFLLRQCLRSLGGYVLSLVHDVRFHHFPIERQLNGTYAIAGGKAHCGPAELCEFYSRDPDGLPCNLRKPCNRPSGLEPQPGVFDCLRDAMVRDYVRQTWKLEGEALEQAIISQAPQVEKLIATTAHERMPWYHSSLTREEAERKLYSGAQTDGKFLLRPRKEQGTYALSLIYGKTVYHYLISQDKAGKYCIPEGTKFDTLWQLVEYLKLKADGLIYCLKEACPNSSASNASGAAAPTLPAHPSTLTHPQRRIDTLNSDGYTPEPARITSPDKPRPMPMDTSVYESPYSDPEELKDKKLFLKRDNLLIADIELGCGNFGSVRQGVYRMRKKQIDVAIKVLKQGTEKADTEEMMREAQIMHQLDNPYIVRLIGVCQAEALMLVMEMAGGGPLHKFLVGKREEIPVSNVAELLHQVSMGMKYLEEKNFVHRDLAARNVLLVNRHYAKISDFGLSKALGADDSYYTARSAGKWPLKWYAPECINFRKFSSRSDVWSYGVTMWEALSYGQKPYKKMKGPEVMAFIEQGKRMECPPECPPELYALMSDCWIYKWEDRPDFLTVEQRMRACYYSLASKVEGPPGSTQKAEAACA
# [4] = biological target: T3, Serine/threonine-protein kinase Sgk2 (Homo sapiens) (UniProt Q9HBY8); assay: Inhibition of human recombinant SGK2 at 15 nM in presence of ATP by radiometric assay relative to control
# T3 sequence (whole entry): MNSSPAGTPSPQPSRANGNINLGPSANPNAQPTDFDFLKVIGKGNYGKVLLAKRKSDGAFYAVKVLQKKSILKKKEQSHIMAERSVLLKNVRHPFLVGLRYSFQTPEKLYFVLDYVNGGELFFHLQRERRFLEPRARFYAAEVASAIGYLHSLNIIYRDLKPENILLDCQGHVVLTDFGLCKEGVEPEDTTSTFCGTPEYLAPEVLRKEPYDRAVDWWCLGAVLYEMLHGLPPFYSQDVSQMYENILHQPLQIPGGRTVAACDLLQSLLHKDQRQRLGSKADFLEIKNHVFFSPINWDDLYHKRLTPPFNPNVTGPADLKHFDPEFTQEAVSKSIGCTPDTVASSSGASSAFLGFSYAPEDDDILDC
# [5] = biological target: Receptor-interacting serine/threonine-protein kinase 2 (Homo sapiens) (UniProt O43353); assay: Inhibition of human recombinant RIPK2 at 40 nM in presence of ATP by radiometric assay relative to control
# Chain of Receptor-interacting serine/threonine-protein kinase 2 (Homo sapiens) (O43353 whole entry): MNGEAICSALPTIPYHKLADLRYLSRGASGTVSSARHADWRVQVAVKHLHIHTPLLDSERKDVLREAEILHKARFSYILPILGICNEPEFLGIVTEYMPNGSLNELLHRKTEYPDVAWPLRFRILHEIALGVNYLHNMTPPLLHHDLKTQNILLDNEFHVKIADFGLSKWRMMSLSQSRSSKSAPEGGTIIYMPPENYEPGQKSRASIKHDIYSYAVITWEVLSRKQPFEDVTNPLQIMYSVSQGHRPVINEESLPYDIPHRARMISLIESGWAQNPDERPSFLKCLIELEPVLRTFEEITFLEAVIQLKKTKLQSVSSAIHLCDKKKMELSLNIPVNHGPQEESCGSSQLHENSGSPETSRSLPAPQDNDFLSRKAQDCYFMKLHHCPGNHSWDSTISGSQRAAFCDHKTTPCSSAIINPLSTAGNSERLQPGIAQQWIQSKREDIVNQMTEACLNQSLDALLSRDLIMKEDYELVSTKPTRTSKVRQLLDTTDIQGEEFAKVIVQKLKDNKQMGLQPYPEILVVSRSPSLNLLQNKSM
# [6] = biological target: T4, Serine/threonine-protein kinase STK11 (Homo sapiens) (UniProt Q15831); assay: Inhibition of human recombinant LKB1 at 40 nM in presence of ATP by radiometric assay relative to control
# T4 sequence (whole entry): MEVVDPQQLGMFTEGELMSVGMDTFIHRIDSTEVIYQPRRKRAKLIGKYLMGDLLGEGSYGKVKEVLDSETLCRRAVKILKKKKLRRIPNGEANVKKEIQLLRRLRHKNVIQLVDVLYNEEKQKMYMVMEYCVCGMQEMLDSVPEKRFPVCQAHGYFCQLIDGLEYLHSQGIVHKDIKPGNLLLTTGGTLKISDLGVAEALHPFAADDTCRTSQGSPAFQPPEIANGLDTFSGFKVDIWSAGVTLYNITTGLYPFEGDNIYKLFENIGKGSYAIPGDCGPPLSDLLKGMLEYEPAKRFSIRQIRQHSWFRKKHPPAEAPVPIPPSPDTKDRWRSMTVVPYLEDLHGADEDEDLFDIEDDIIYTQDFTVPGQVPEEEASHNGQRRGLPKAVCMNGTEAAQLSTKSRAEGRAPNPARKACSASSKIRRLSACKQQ
# Chain of Tau-tubulin kinase 2 (Homo sapiens) (Q6IQ55 whole entry): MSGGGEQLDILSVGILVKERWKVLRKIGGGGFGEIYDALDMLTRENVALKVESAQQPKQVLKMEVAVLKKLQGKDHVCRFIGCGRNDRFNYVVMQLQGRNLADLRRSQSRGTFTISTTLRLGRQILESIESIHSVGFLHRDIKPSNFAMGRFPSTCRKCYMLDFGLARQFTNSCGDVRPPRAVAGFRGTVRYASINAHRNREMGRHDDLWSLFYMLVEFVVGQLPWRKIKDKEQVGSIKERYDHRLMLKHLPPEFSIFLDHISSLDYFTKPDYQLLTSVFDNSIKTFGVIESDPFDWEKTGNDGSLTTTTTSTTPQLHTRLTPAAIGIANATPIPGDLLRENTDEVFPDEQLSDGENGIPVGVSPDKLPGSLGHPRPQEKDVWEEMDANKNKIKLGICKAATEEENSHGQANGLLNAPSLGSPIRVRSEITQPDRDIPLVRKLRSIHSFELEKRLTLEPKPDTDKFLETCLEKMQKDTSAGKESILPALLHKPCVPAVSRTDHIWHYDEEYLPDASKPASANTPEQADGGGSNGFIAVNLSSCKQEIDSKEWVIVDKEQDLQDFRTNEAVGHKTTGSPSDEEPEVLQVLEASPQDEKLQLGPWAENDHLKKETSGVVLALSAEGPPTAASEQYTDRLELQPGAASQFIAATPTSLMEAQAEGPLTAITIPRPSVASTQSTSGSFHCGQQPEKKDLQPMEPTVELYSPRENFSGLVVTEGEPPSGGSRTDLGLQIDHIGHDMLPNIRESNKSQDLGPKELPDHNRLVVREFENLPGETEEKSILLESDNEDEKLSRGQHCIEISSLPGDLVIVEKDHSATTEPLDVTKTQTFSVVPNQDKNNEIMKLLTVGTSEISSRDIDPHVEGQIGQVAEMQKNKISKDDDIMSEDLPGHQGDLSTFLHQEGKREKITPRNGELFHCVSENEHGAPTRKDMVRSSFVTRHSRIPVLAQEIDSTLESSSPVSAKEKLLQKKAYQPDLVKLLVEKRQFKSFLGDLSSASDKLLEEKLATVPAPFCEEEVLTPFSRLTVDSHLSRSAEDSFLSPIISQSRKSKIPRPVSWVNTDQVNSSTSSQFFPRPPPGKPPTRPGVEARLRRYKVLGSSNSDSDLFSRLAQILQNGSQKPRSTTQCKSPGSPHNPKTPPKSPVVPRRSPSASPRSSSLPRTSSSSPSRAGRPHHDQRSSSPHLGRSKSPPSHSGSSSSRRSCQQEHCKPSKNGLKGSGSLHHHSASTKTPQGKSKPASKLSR
smiles,measurement,setting,value
CNC(=O)c1ccccc1Oc1nc(Nc2cc(OC)c(OC)c(OC)c2)ncc1Br,fold change (FC),[1],0.08
same,inhibition,[2],0%
CC(C)[C@H](NC(=O)c1cc(-c2cnn3cc(-c4ccc(OCCN5CCCCC5)cc4)cnc23)cs1)C(F)(F)F,inhibition,[3],0%
same,inhibition,[4],0%
O=C(N[C@@H](C1CC1)C(F)(F)F)c1cc(-c2cnn3cc(-c4ccc(F)cc4)cnc23)cs1,inhibition,[5],30%
same,inhibition,[6],13%
